Values of other authors in patent US20100317740A1, “Method for Predicting Response to Tamoxifen” (GEORGE MASON INTELLECTUAL PROPERTIES, INC., priority 2007, published 2010).

Tested on: node negative breast cancer with estrogen receptor on tumors
Settings: women with node negative breast cancer and estrogen receptor on their tumors

## CC/C(=C(\c1ccccc1)c1ccc(OCCN(C)C)cc1)c1ccccc1 [Tamoxifen]
  eligible women who do not respond to Tamoxifen therapy: 30-40%
